From US4632922A, “Oxomorpholinyl dimer and rescue of anthracycline and mitomycin C damage” (The United States of America as represented by the …, priority 1985, dated 1986)

What was measured:
[1] = Stability of DHM3 in water upon exposure to air; format: physicochemical
Experimental: Oxazinone 2 (6.0 g, 0.019 mol) was dissolved in 500 ml of 2-propanol (Fisher). The solution was irradiated with a 450 W mercury immersion lamp through a Pyrex filter. Throughout the reacion the photochemical apparatus was immersed in a bath kept at 0° C. and nitrogen was bubbled through the solution. The disappearance of the oxazinone chromophore was monitored by UV spectroscopy. After 24 h, when the UV maximum at 323 nm had disappeared, the irradiation was stopped, and the solvent quickly rotary evaporated without delay at ambient temperature (20°-28° C.) first at 15-20 Torr, then at 1 Torr. The residue was dissolved in 70 ml of chloroform and the solution was stored in a freezer at about -18° C. for 6 days. The resulting pricipitate was collected by suction filtration, washed thoroughly with cold chloroform (≈10° C.) and dried under vaccuum to give 2.9 g (48%) of a white powder, mp 121°-124° C. An additional crop of crystals (0.64 g) was obtained from the mother liquors after two more weeks in the freezer. […] Minor peaks in the spectrum were present in areas compatible with the presence of other stereoisomers. Infrared and analytical data are as follows: IR (KBr) 3160, 2900, 1715, 1455, 1285, 1220, 1040, 770, 715 cm^-1; anal. calcd. for C14 H24 N2 O6 : C, 53.15; H, 7.65; N, 8.85. Found: C, 53.00; H, 7.70; N, 8.84. […]

[2] = system: DOX-induced skin ulceration; experiment: Rescue by DHM3 of DOX-induced skin necrosis (ulceration, induration) in swine; format: in vivo, miniature white swine
Experimental: In order to produce anthracycline induced tissue damage, clinical grade doxorubicin (DOX) hydrochloride was obtained as a representative anthracycline chemical from the Drug Synthesis Branch, Developmental Therapeutics Program, National Cancer Institute. Each vial contained 10 mg DOX hydrochloride and 50 mg lactose which was reconstituted with 5.0 ml sterile 0.9% NaCl solution to give a final drug concentration of 2.0 mg/ml. DHM3 solution was prepared by dissolving 10 mg in ice-cold water which had been purged with N2 gas for 5 minutes. Dissolution was facilitated by brief sonication to give a final concentration of 10 mg/ml. The solution was kept cold (≈4° C.) and protected from air and light.
Female weanling miniature white swine weighing approximately 12 kg were obtained from the Veterinary Resources Branch, National Institutes of Health. The development of this strain of swine has been described previously (Sachs, et al., Transplantation 22:559-567, 1976). Each animal was housed in a 6×4 ft metabolic cage and was fed standard NIH show chow, 1.5 lbs twice daily.
Each animal was anesthesized by intramuscular injections of ketamine, 20 mg/kg, xylazine, 20 mg/kg, and atropine, 1.0 mg. Following endotracheal intubation anesthesia was maintained with a mixture of nitrous oxide, halothane, and oxygen gas.
(§1) DOX HCl (2.0 mg/ml) was administered intradermally (i.d.) with a 25 gauge needle inserted approximately 4 to 5 mm into the skin. Following the injection of 0.5, 0.75 or 1.0 ml (1.0, 1.5, or 2.0 mg, respectively) DOX solution, the syringe was removed from the hub leaving the needle in place. After the indicated time interval, 1.0 ml (10 mg) DHM3 was injected through the same needle and the needle was then removed. Control sites received 1.0 ml sterile water instead of DHM3. The injection sites were along the mid-lateral aspect of each side of the swine and were 4-5 cm apart (6-8 injection sites per side). One animal was used for a dose experiment where DOX, 0.5 ml/site was injected along one side and 1.0 ml/site was injected along the contralateral side. Fifteen minutes later, DHM3 or water was injected into alternating sites as described above. A second animal received DOX, 0.75 ml/site along both sides. DHM3 or water was injected into alternating sites at times varying from 5 to 120 minutes following DOX administration.
(§2) All lesions were measured by a single observer with metric calipers three times weekly for two weeks, followed by weekly measurements thereafter. The areas of skin ulceration and induration were estimated by the product of the cross perpendicular diameters. The total toxicity of DOX-induced skin ulceration was determined by calculating the area under the ulceration-time curve (AUC) in mm^2 -days.
In order to assess the extent of tissue injury following intradermal DOX or DHM3, incisional biopsies were performed on representative lesions 6 and 20 days following drug injection. These samples were placed in 10% buffered formalin and processed for examination by standard light microscopy (Pathco Inc., Potomac, MD.).

[3] = system: drug-induced skin necrosis; experiment: Protection by DHM3 against drug-induced skin necrosis in the swine model; format: in vivo; conditions: for Percent Reduction of Maximal Ulcer Size: DHM3 15 min later
Experimental: as §1
In a separate study, equimolar amounts of several compounds used in experimental or clinical cancer chemotherapy were injected into pig skin using the same method described above. Paired injection sites were treated 15 minutes later with either H2 O or DHM3 in duplicate.
as §2

[4] = DHM3 10 mg 15 min after DOX 2.0 mg i.d.

## CC1(CO)COC(=O)C(C)(C2(C)NC(C)(CO)COC2=O)N1 (stereo not drawn) [DHM3, bi(3,5-dimethyl-5-hydroxymethyl-2-oxomorpholin-3-yl)]
[1]
  stability to air in water: quickly gives rise to an absorption maximum at 310 nm, characteristic of the oxazinone
[2]; [4]
  extent of skin necrosis: greatly reduced
  reduction of peak area size of the ulcer: 80%
[2]; DHM3 10 mg 15 min after DOX 2.0 mg, control 7 weeks
  time to complete healing: ≤ 5 weeks
[2]; DHM3 10 mg i.d. 5 min after DOX 1.5 mg i.d.
  AUC (total toxicity of skin ulceration): 960 mm^2 . days
[2]; DHM3 10 mg i.d. 15 min after DOX 1.0 mg i.d., mean of 3 lesions, p < .005
  AUC (total toxicity of skin ulceration): 840 ± 420 mm^2 . days
[2]; DHM3 10 mg i.d. 15 min after DOX 1.5 mg i.d.
  AUC (total toxicity of skin ulceration): 2220 mm^2 . days
[2]; DHM3 10 mg i.d. 15 min after DOX 2.0 mg i.d., mean of 3 lesions, p < .001
  AUC (total toxicity of skin ulceration): 1020 ± 420 mm^2 . days
[2]; DHM3 10 mg i.d. 30 min after DOX 1.5 mg i.d.
  AUC (total toxicity of skin ulceration): 3240 mm^2 . days
[2]; DHM3 10 mg i.d. 60 min after DOX 1.5 mg i.d.
  AUC (total toxicity of skin ulceration): 4020 mm^2 . days
[2]; DHM3 10 mg i.d. 90 min after DOX 1.5 mg i.d.
  AUC (total toxicity of skin ulceration): 5340 mm^2 . days
[2]; DHM3 10 mg i.d. 120 min after DOX 1.5 mg i.d.
  AUC (total toxicity of skin ulceration): 8400 mm^2 . days
[2]; DHM3 5 min after DOX
  protection against DOX injury: Optimal protection
[2]; DHM3 after DOX
  reduction of the size of surrounding induration: observed to parallel the ulcer measurements
[2]; DHM3 injected into DOX site
  color change of stained skin: immediately changed to a rusty brown
[2]; DOX 1.0 mg, compared with 2.0 mg
  reduction of DOX induced injury: similar
[2]; interval greater than 60 min
  protection against DOX injury: no protection is observed
[2]; interval increased to 60 min
  protection against DOX injury: Progressively less protection
[2]; up to 60 min after i.d. DOX
  protection from skin necrosis (maximal ulcer area and time required for healing): considerable protection
[3]; against 4'-Epidoxorubicin, Exper. 4
  Percent Reduction of Maximal Ulcer Size: 51%
[3]; against 4-Demethoxydaunorubicin, Exper. 4
  Percent Reduction of Maximal Ulcer Size: 79%
[3]; against 5-Iminodaunorubicin, Exper. 3
  Percent Reduction of Maximal Ulcer Size: 53%
[3]; against Aclarubicin, Exper. 4
  Percent Reduction of Maximal Ulcer Size: 46%
[3]; against Adriamycin, Exper. 1
  Percent Reduction of Maximal Ulcer Size: 77%
[3]; against Adriamycin, Exper. 2
  Percent Reduction of Maximal Ulcer Size: 40%
[3]; against Daunorubicin, Exper. 2
  Percent Reduction of Maximal Ulcer Size: 39%
[3]; against Menogaril, Exper. 4
  Percent Reduction of Maximal Ulcer Size: 61%
[3]; against Mitomycin C, Exper. 3
  Percent Reduction of Maximal Ulcer Size: 58%
[3]; against Mitoxantrone
  protection against drug-induced skin necrosis: no protection observed
[3]; against Vinblastine
  protection against drug-induced skin necrosis: no protection observed
[3]; against Vincristine
  protection against drug-induced skin necrosis: no protection observed
[3]; several anthracycline analogs and mitomycin C
  protection against tissue necrosis: effective in all cases
[3]; vinca alkaloid and mitoxantrone
  protection against skin injury: did not protect
